The record followed here is patent publication US8586618B2, “Furanone compounds and lactam analogues thereof” (Biosignal Limited, priority 2006, dated 2013).

In data set [1] the test system is Pseudomonas aeruginosa biofilm. Put plainly: Inhibition of biofilm formation, Petri dish model, Pseudomonas aeruginosa. Format: cell-based. As to conditions: 10 μg/mL, 48 h exposure. The protocol: (§1) Compounds were run in a Petri dish model—where the cells of E. coli or Pseudomonas aeruginosa were exposed to the compound for 48 h. The amount of biofilm was determined by combining image data of the XY (surface cover in one plane) and XZ (depth). The controls gave good biofilm cover and some structure formation.

Data set [2] deals with E. coli biofilm. Put plainly: Inhibition of biofilm formation, Petri dish model, E. coli. It is filed as cell-based. As to conditions: 48 h exposure. Here is the method:
as §1

Data set [3] relates to LasR quorum sensing system. Put plainly: LasR assay (unstable gfp fused to elastase promoter). The following applies: for inhibition at 25 µg/mL / inhibition at 100 µg/mL / inhibition at 50 µg/mL: Pseudomonas aeruginosa; for inhibition at 25 µg/mL: read-out: LasR (% inhibition at 25 ug/ml compound); for LasR % inhibition at 100 μg/ml: 100 μg/ml compound; for inhibition at 100 µg/mL: read-out: LasR % inhibition at 100 μg/ml; for inhibition at 50 µg/mL: read-out: LasR % inhibition at 50 μg/ml. Format: cell-based, Pseudomonas aeruginosa. Here is the method: Compounds of the present invention were also assayed using a LasR assay. The LasR assay provides a measurement of quorum sensing inhibition activity. […] In the LasR assay, an unstable gfp has been fused to the elastase promoter, so that the amount of Gfp is regulated by the QS system. The plasmid is put into Pseudomonas aeruginosa which makes its own AHL signals. The assay is performed by adding the compounds to be tested to the system at the beginning of the experiment, at different concentrations. Gfp expression is measured at different times during growth, ending at the 24 h time point. The percentage fluorescence was determined at the time point when the fluorescence reached its maximum in the control, usually around 11-12 h after inoculation.

Data set [4] relates to V. fischeri luxRI system (AHL quorum sensing, gfp fused to luxI promoter). The experiment in a line: N-acylated homoserine lactone (AHL) quorum sensing assay, GFP reporter strain. It is filed as cell-based, E. coli. The following applies: for ID40 at 3 nM OHHL: value in brackets; for AIC40: inhibition index: slope of ID40 vs AHL concentration, lower is better. Here is the method: Compounds of the present invention were compared to compounds of the prior art in order using an AHL-quorum sensing assay which utilises a reporter strain that expresses Green Fluorescent Protein (GFP) in the presence of AHL signals. The assay is performed by measuring GFP output in the presence of the compound to be measured and comparing the output to a control. By using multiple samples at varying concentrations of compound and AHL, an inhibition index of compound activity can be generated. The inhibition index used in the present example is the relative amount of compound required to reduce GFP expression to 40% of the control. The inhibition index is termed AIC40. Lower values of AIC40 represent better inhibitors of the AHL quorum sensing system.
The reporter strain of bacterium used in this assay is E. coli into which the V. fischeri luxRI system has been engineered. A gfp gene is fused to the QS controlled luxI promoter as is described in (Andersen et al., 2001, and Andersen et al, 1998).
Measurement of AIC40 (ID40 at 3 nM OHHL)
Determination of the activity of compounds using the E. coli based luxRI construct was performed as follows.
In a 15 mL plastic tube, mix 3 mL of o.n. culture of the lux reporter strain with 12 mL fresh medium, incubate at 37° C. Label six tubes, 10, 20, two 50 and two 100. To each of the tubes, add OHHL (3-oxohexanoyl homoserine lactone) to a final concentration of 10, 20, 50, or 100 nM respectively in the AB medium (add enough medium to distribute across the appropriate number of wells). To the first row of the microplate (row A), add 200 ul of the OHHL/AB mixture. To the remaining rows (B-H) add 100 ul of the OHHL/AB mixture. To the first row (A) add compounds to be tested to the 200 ul mixture of OHHL/AB. Make a dilution series in the first 7 rows by transferring 100 μL from wells in row 1 to wells in row 2 and so on. Discard the remaining 100 μL from row 7. Add 100 μL diluted lux monitor to each well. Incubate the plate 2 hours at 37° C. and measure green fluorescence using the “Victor” plate reader.
Calculate ID40 for each column. To do this, calculate the relative activity in each well. […] Make a plot for each concentration of OHHL vs. the range of compound concentrations used. Calculate the amount of compound needed to lower the relative activity to 40%, this is termed inhibiting dose 40%, ID40. For each compound an inhibition index, AIC40, is found as follows: plot ID40 against its respective AHL concentration; AIC40 is the slope of the best straight line through the plotted points and origin.

Setting [5] is: amount lowering GFP activity to 40%.

`O=C1C=C(c2cccs2)CO1` [Compound 6, 4-(Thiophen-2′-yl)furan-2(5H)-one] came in with a melting point of 94 to 96.5 °C. Moreover, the “% biofilm” value in data set [1] is 77%. Moreover, in data set [2] (25 μg/mL), the “% biofilm” value came out at 87.7%. Moreover, in data set [2] (40 μg/mL), the “% biofilm” value stood at 97%. Besides, the inhibition at 25 µg/mL in data set [3] was 10%. In addition, in data set [4] (setting [5]), the “ID40 at 3 nM OHHL” value was found to be 58.7. In data set [4], the AIC40 is listed as 24.6.
For `O=C1C=C(c2ccccc2)/C(=C/c2cccc(C(F)(F)F)c2)O1` [Compound 13], the melting point is 108 to 110 °C.
With “(Z)-4-(3′-(Trifluoromethyl)phenyl)-5-(3″-(trifluoromethyl)benzylidene)furan-2(5H)-one [Compound 23]”, in data set [3], the “LasR (% inhibition at 25 ug/ml compound)” value was found to be 23% and the “LasR % inhibition at 100 μg/ml” value was found to be 46.4%. Further, the “ID40 at 3 nM OHHL” value in data set [4] (setting [5]) turned out to be 22.1. In data set [4], this molecule had an AIC40 of 4.64.
Regarding `O=C1C=C(c2ccccc2C(F)(F)F)CO1` [Compound 9, 4-(2′-Trifluoromethylphenyl)furan-2(5H)-one], the melting point lay within 49 to 50 °C.
Consider `O=C1C=C(c2ccc(OC(F)(F)F)cc2)/C(=C/c2ccc(OC(F)(F)F)cc2)O1` [Compound 21, (Z)-4-(4′-(Trifluoromethoxy)phenyl)-5-(4″-(trifluoromethoxy)benzylidene)furan-2(5H)-one], for which, in data set [3], the inhibition at 100 µg/mL is 47% and the inhibition at 25 µg/mL is 14.7%. Further, the “ID40 at 3 nM OHHL” value in data set [4] (setting [5]) was determined as 148. The same molecule had an AIC40 in data set [4] of 4.4.
With `O=C1C=C(c2ccc(F)cc2)CN1` [Compound 36, 4-(4′-Fluorophenyl)-1H-pyrrol-2(5H)one], the melting point was determined as 190 °C.
Still for that read-out and setting: with `O=C1C=C(c2ccc(C(F)(F)F)cc2C(F)(F)F)CO1` [Compound 15, 4-(2′,4′-Bis(trifluoromethyl)phenyl)furan-2(5H)-one] the figure was 116 to 117 °C.
In the case of `O=C1C=C(c2ccc(Br)cc2)CN1` [Compound 35, 4-(4′-Bromophenyl)-pyrrol-2(5H)-one], the melting point is 233 to 235 °C (dec.).
As for `O=C1C=C(c2ccc(OC(F)(F)F)cc2)CO1` [Compound 5, 4-(4′-Trifluoromethoxyphenyl)furan-2(5H)-one], the melting point was in the range of 122 to 123 °C. In data set [3], the inhibition at 50 µg/mL turned out to be 43.2% and the inhibition at 25 µg/mL worked out at 19.3%. In data set [4] (setting [5]), the “ID40 at 3 nM OHHL” value worked out at 11.37. This molecule also had an AIC40 in data set [4] of 5.9.
Consider `CC1OC(=O)C=C1c1ccccc1` (centres unmarked) [Compound 27, 5-methyl-4-phenyl-2(5H)furanone], for which, in data set [3], the inhibition at 100 µg/mL was found to be 57% and the inhibition at 25 µg/mL worked out at 9%.
On to `O=C1C=C(c2ccsc2)CO1` [Compound 14, 4-(Thiophen-3′-yl)furan-2(5H)-one], for which the melting point lay in the range of 130.5 to 132 °C. In addition, in data set [3], the inhibition at 25 µg/mL worked out at 15%. Also, in data set [4], the “ID40 at 3 nM OHHL” value stood at 60 µM and the AIC40 came to 4.9.
Molecule `Cn1cc(C2=CC(=O)OC2)cn1` [Compound 12, 4-(N-Methylpyrazol-4′-yl)furan-2(5H)-one] registered a melting point of 181 to 182 °C. Also, in data set [3], the inhibition at 50 µg/mL stood at 22.9%.
With “(Z)-5-(4-fluorobenzylidene)furan-2(5H)-one [Compound 28]”, in data set [3], the “LasR (% inhibition at 25 ug/ml compound)” value came to 13% and the “LasR % inhibition at 100 μg/ml” value worked out at 53%.
With `O=C1C=C(c2ccc(F)cc2F)CO1` [Compound 1, 4-(2′,4′-Difluorophenyl)furan-2(5H)-one], the “ID40 at 3 nM OHHL” value in data set [4] (setting [5]) turned out to be 17.83. In data set [4], the AIC40 was determined as 7.6.
With `O=C1C=C(c2ccc(C(F)(F)F)cc2)/C(=C/c2ccc(C(F)(F)F)cc2)O1` [Compound 17, (Z)-4-(4′-(trifluoromethyl)phenyl)-5-(4″-(trifluoromethyl)benzylidene)furan-2(5H)-one], the melting point was 127.5 to 129 °C.
Regarding `O=C1C=C(Br)CO1` [Compound 11, 4-Bromofuran-2(5H)-one], the melting point is 72 to 74 °C.
The same measure, in the same setting: in the case of `Cc1noc(C)c1C1=CC(=O)OC1` [Compound 7, 4-(3′,5′-Dimethylisoxazol-4′-yl)furan-2(5H)-one] it was 101 to 103 °C.
`O=C1C=C(Br)/C(=C/c2cccs2)O1` [Compound 26]: in data set [3], the inhibition at 100 µg/mL is 76% and the inhibition at 25 µg/mL came out at 30%.
In the case of “(Z)-5-(4-(trifluoromethyl)benzylidene)furan-2(5H)-one [Compound 29]”, in data set [3], the “LasR (% inhibition at 25 ug/ml compound)” value amounted to 15.8% and the “LasR % inhibition at 100 μg/ml” value is 38.4%.
In the case of `O=C1C=C(c2ccc(F)cc2)CO1` [Compound 2, 4-(4′-Fluorophenyl)furan-2(5H)-one], in data set [4] (setting [5]), the “ID40 at 3 nM OHHL” value was determined as 39.4. The molecule further had an AIC40 in data set [4] of 14.39.
`O=C1C=C(c2cccc(C(F)(F)F)c2)CO1` [Compound 8, 4-(3′-Trifluoromethylphenyl)furan-2(5H)-one] yielded a melting point of 124 to 125 °C. In addition, in data set [3], the inhibition at 50 µg/mL stood at 42.2% and the inhibition at 25 µg/mL stood at 22%.
With `O=C1C=C(c2ccc(C(F)(F)F)cc2)CO1` [Compound 3, 4-(4′-Trifluoromethylphenyl)furan-2(5H)-one], in data set [3], the inhibition at 25 µg/mL came to 22%. Also, the “ID40 at 3 nM OHHL” value in data set [4] (setting [5]) amounted to 4.37. Besides, the AIC40 in data set [4] is recorded as 0.77.
Consider `O=C1C=C(c2cccc(C(F)(F)F)c2)/C(=C/c2cccc(C(F)(F)F)c2)O1` [Compound 24], for which, in data set [3], the inhibition at 100 µg/mL came to 35% and the inhibition at 25 µg/mL was determined as 19%.
As to `O=C1C=C(Br)/C(=C/c2ccsc2)O1` [Compound 25], in data set [3], the inhibition at 100 µg/mL turned out to be 78% and the inhibition at 25 µg/mL amounted to 20%.
